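Each compound was tested at five concentrations against cells in 96-well plates for 48 hours. TGI denotes the concentration required for complete inhibition of growth.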
What was measured:
Experiment in all cases: inhibition of tumour cell growth, NCI panel, 48 h
DU-145 prostate = system: DU-145 prostate
UO-31 renal = system: UO-31 renal
LOX IMVI melanoma = system: LOX IMVI melanoma
SK-MEL-5 melanoma = system: SK-MEL-5 melanoma
M14 melanoma = system: M14 melanoma
ACHN renal = system: ACHN renal
SNB-75 CNS = system: SNB-75 CNS
OVCAR-5 ovarian = system: OVCAR-5 ovarian
BT-549 breast = system: BT-549 breast
OVCAR-4 ovarian = system: OVCAR-4 ovarian
SNB-19 CNS = system: SNB-19 CNS
HCT-15 colon = system: HCT-15 colon
MDA-MB-231 breast = system: MDA-MB-231 breast
IGROV1 ovarian = system: IGROV1 ovarian
NCI-H460 lung = system: NCI-H460 lung
HCC-2998 colon = system: HCC-2998 colon
TK-10 renal = system: TK-10 renal
SK-MEL-2 melanoma = system: SK-MEL-2 melanoma
COLO 205 colon = system: COLO 205 colon
SF-295 CNS = system: SF-295 CNS
HCT-116 colon = system: HCT-116 colon
OVCAR-8 ovarian = system: OVCAR-8 ovarian
EKVX NSCLC = system: EKVX NSCLC
HT29 colon = system: HT29 colon
SK-OV-3 ovarian = system: SK-OV-3 ovarian
HOP-62 NSCLC = system: HOP-62 NSCLC
OVCAR-3 ovarian = system: OVCAR-3 ovarian
KM12 colon = system: KM12 colon
SF-268 CNS = system: SF-268 CNS
NCI/ADR-RES ovarian = system: NCI/ADR-RES ovarian
MCF7 breast = system: MCF7 breast
U251 CNS = system: U251 CNS
UACC-257 melanoma = system: UACC-257 melanoma
A498 renal = system: A498 renal
SW-620 colon = system: SW-620 colon
CCRF-CEM leukemia = system: CCRF-CEM leukemia
PC-3 prostate = system: PC-3 prostate
K-562 leukemia = system: K-562 leukemia
SN12C renal = system: SN12C renal
NCI-H23 lung = system: NCI-H23 lung
RXF 393 renal = system: RXF 393 renal
786-0 renal = system: 786-0 renal
NCI-H226 lung = system: NCI-H226 lung
HL-60(TB) leukemia = system: HL-60(TB) leukemia
MALME-3M melanoma = system: MALME-3M melanoma
CAKI-1 renal = system: CAKI-1 renal
A549 NSCLC = system: A549 NSCLC
SF-539 CNS = system: SF-539 CNS
MDA-MB-435 = system: MDA-MB-435
SK-MEL-28 melanoma = system: SK-MEL-28 melanoma
MDA-N = system: MDA-N
MOLT-4 leukemia = system: MOLT-4 leukemia
HS 578T breast = system: HS 578T breast
RPMI-8226 leukemia = system: RPMI-8226 leukemia
SR leukemia = system: SR leukemia
NCI-H522 lung = system: NCI-H522 lung
UACC-62 melanoma = system: UACC-62 melanoma
HOP-92 NSCLC = system: HOP-92 NSCLC

C=Cc1nc2nnc(CCCCCCCCc3nnc4nc(C=C)[nH]n34)n2[nH]1
TGI (DU-145 prostate): > 100 µM | TGI (UO-31 renal): > 100 µM | TGI (LOX IMVI melanoma): > 100 µM | TGI (SK-MEL-5 melanoma): > 100 µM | TGI (M14 melanoma): > 100 µM | TGI (ACHN renal): > 100 µM | TGI (SNB-75 CNS): > 100 µM | TGI (OVCAR-5 ovarian): > 100 µM | TGI (BT-549 breast): > 100 µM | TGI (OVCAR-4 ovarian): > 100 µM | TGI (SNB-19 CNS): > 100 µM | TGI (HCT-15 colon): > 100 µM | TGI (MDA-MB-231 breast): > 100 µM | TGI (IGROV1 ovarian): > 100 µM | TGI (NCI-H460 lung): > 100 µM | TGI (HCC-2998 colon): > 100 µM | TGI (TK-10 renal): > 100 µM | TGI (SK-MEL-2 melanoma): > 100 µM | TGI (COLO 205 colon): > 100 µM | TGI (SF-295 CNS): > 100 µM | TGI (HCT-116 colon): > 100 µM | TGI (OVCAR-8 ovarian): > 100 µM | TGI (EKVX NSCLC): > 100 µM | TGI (HT29 colon): > 100 µM | TGI (SK-OV-3 ovarian): > 100 µM | TGI (HOP-62 NSCLC): > 100 µM | TGI (OVCAR-3 ovarian): > 100 µM | TGI (KM12 colon): > 100 µM | TGI (SF-268 CNS): > 100 µM | TGI (NCI/ADR-RES ovarian): > 100 µM | TGI (MCF7 breast): > 100 µM | TGI (U251 CNS): > 100 µM | TGI (UACC-257 melanoma): > 100 µM | TGI (A498 renal): > 100 µM | TGI (SW-620 colon): > 100 µM | TGI (CCRF-CEM leukemia): > 100 µM | TGI (PC-3 prostate): > 100 µM | TGI (K-562 leukemia): > 100 µM | TGI (SN12C renal): > 100 µM | TGI (NCI-H23 lung): > 100 µM | TGI (RXF 393 renal): > 100 µM | TGI (786-0 renal): > 100 µM | TGI (NCI-H226 lung): > 100 µM | TGI (HL-60(TB) leukemia): > 100 µM | TGI (MALME-3M melanoma): > 100 µM | TGI (CAKI-1 renal): > 100 µM | TGI (A549 NSCLC): > 100 µM | TGI (SF-539 CNS): > 100 µM | TGI (MDA-MB-435): > 100 µM | TGI (SK-MEL-28 melanoma): > 100 µM | TGI (MDA-N): > 100 µM | TGI (MOLT-4 leukemia): > 100 µM

COc1ccc(C(=O)NCCC2CN(S(=O)(=O)C(F)(F)F)c3ccccc32)c(OC)c1 (stereo not drawn)
TGI (DU-145 prostate): > 100 µM | TGI (UO-31 renal): > 100 µM | TGI (HS 578T breast): > 100 µM | TGI (SK-MEL-5 melanoma): 43.6 µM | TGI (M14 melanoma): > 100 µM | TGI (ACHN renal): > 100 µM | TGI (OVCAR-5 ovarian): > 100 µM | TGI (OVCAR-4 ovarian): > 100 µM | TGI (SNB-19 CNS): > 100 µM | TGI (HCT-15 colon): > 100 µM | TGI (MDA-MB-231 breast): > 100 µM | TGI (IGROV1 ovarian): > 100 µM | TGI (NCI-H460 lung): > 100 µM | TGI (HCC-2998 colon): > 100 µM | TGI (SK-MEL-2 melanoma): > 100 µM | TGI (COLO 205 colon): > 100 µM | TGI (SF-295 CNS): > 100 µM | TGI (HCT-116 colon): > 100 µM | TGI (EKVX NSCLC): > 100 µM | TGI (HT29 colon): 73.8 µM | TGI (SK-OV-3 ovarian): > 100 µM | TGI (HOP-62 NSCLC): > 100 µM | TGI (OVCAR-3 ovarian): > 100 µM | TGI (KM12 colon): 71.3 µM | TGI (NCI/ADR-RES ovarian): 87.2 µM | TGI (MCF7 breast): > 100 µM | TGI (U251 CNS): > 100 µM | TGI (RPMI-8226 leukemia): > 100 µM | TGI (UACC-257 melanoma): > 100 µM | TGI (SR leukemia): > 100 µM | TGI (A498 renal): > 100 µM | TGI (SW-620 colon): > 100 µM | TGI (CCRF-CEM leukemia): 70.3 µM | TGI (PC-3 prostate): > 100 µM | TGI (K-562 leukemia): > 100 µM | TGI (NCI-H23 lung): > 100 µM | TGI (RXF 393 renal): > 100 µM | TGI (786-0 renal): > 100 µM | TGI (MALME-3M melanoma): 35.3 µM | TGI (NCI-H522 lung): 46.8 µM | TGI (CAKI-1 renal): > 100 µM | TGI (A549 NSCLC): > 100 µM | TGI (MDA-MB-435): > 100 µM | TGI (UACC-62 melanoma): 80.1 µM | TGI (SK-MEL-28 melanoma): > 100 µM | TGI (HOP-92 NSCLC): > 100 µM | TGI (MDA-N): > 100 µM | TGI (MOLT-4 leukemia): > 100 µM

C[C@@]1(Br)C[C@@](C)(Cl)[C@@H](Br)CC1/C=C/Cl (stereo partly drawn)
TGI (UO-31 renal): 37.4 µM | TGI (HS 578T breast): 30.6 µM | TGI (LOX IMVI melanoma): 31.4 µM | TGI (SK-MEL-5 melanoma): 26.4 µM | TGI (M14 melanoma): 33.2 µM | TGI (ACHN renal): 32 µM | TGI (SNB-75 CNS): 25.4 µM | TGI (OVCAR-5 ovarian): 29.1 µM | TGI (BT-549 breast): 36 µM | TGI (OVCAR-4 ovarian): > 100 µM | TGI (SNB-19 CNS): 45.3 µM | TGI (HCT-15 colon): > 100 µM | TGI (MDA-MB-231 breast): 36.2 µM | TGI (IGROV1 ovarian): 86.1 µM | TGI (NCI-H460 lung): > 100 µM | TGI (HCC-2998 colon): > 100 µM | TGI (TK-10 renal): 38 µM | TGI (SK-MEL-2 melanoma): 33.2 µM | TGI (COLO 205 colon): 29 µM | TGI (SF-295 CNS): 27.4 µM | TGI (HCT-116 colon): 22.9 µM | TGI (OVCAR-8 ovarian): 29.5 µM | TGI (HT29 colon): 29.6 µM | TGI (SK-OV-3 ovarian): 37 µM | TGI (HOP-62 NSCLC): 30.7 µM | TGI (OVCAR-3 ovarian): 28.4 µM | TGI (KM12 colon): 29.6 µM | TGI (SF-268 CNS): 23 µM | TGI (NCI/ADR-RES ovarian): 25.8 µM | TGI (MCF7 breast): 31.7 µM | TGI (U251 CNS): 42.6 µM | TGI (RPMI-8226 leukemia): 73.7 µM | TGI (UACC-257 melanoma): 37.3 µM | TGI (SR leukemia): 41 µM | TGI (SW-620 colon): 91.8 µM | TGI (CCRF-CEM leukemia): 27.7 µM | TGI (PC-3 prostate): 29.3 µM | TGI (K-562 leukemia): > 100 µM | TGI (SN12C renal): 28.2 µM | TGI (NCI-H23 lung): > 100 µM | TGI (786-0 renal): 30.2 µM | TGI (NCI-H226 lung): 22.8 µM | TGI (A549 NSCLC): 61.7 µM | TGI (SF-539 CNS): 31 µM | TGI (MDA-MB-435): 39.2 µM | TGI (SK-MEL-28 melanoma): 53.7 µM | TGI (MDA-N): 29.7 µM | TGI (MOLT-4 leukemia): 33.8 µM

From PubChem BioAssay (NCI)
